Experiments:
Assay type in all cases: in vivo
[1] = test system: Two-Spotted Spider Mite (Tetranychus urticae); assay: Two-spotted spider mite (Tetranychus urticae) spray test on kidney bean; conditions: after 7 days
Protocol: (§1) Unless not mentioned otherwise, the test solutions were prepared as follows:
(§2) Solvent: 3 parts by weight Dimethylformamide
(§3) Emulsifier: 1 part by weight Polyoxyethylene alkyl phenyl ether
(§4) In order to make an appropriate formulation of an active compound, 1 part by weight of the active compound is mixed with the above mentioned amount of solvent and emulsifier and the mixture is diluted with water to a prescribed concentration. Ammonium salt or ammonium salt and penetration enhancer in a dosage of 1000 ppm are added to the desired concentration if necessary.
50 to 100 adult mites of Tetranychus urticae were inoculated to leaves of kidney bean at two-leaf stage planted in a pot of 6 cm in diameter. After one day, test solution at the appropriate concentration was sprayed thereon in a sufficient amount using a spray gun. After the spraying, the plant pot was placed inside a greenhouse, and after 7 days, the acaricidal activity was calculated. An acaricidal activity of 100% means that all mites were killed, whereas an acaricidal activity of 0% means that no mite was killed.

[2] = test system: Cucurbit Leaf Beetle (Aulacophora femoralis); assay: Cucurbit leaf beetle (Aulacophora femoralis) cucumber leaf dip test; conditions: after 7 days; for pest or weed control at 20 ppm: Aulacophora, foliar, 168 h, read-out: insecticidal activity
Protocol: as §1, §2, §3, §4
Leaves of cucumber were immersed in the test solution at the appropriate concentration, and the leaves were dried in air. The leaves were then put in a plastic cup containing sterilized black soil and five Aulacophora femoralis at second instar larvae were released in the cup. The cups were placed in a temperature-controlled chamber at 25° C. After 7 days, the number of dead larvae was counted, and thus the insecticidal activity was calculated. An insecticidal activity of 100% means that all larvae were killed, whereas an insecticidal activity of 0% means that no larva was killed.

[3] = test system: Larvae of Spodoptera litura; assay: Larvae of Spodoptera litura, method using artificial feeds; conditions: artificial feed, after 7 days
Protocol: as §1, §2, §3, §4
[A Method Using Artificial Feeds (Trade Name: Insecta LFM, Manufactured by Nosan Corporation)]
Powdery artificial feeds (2.3 g) were added to a plastic cup (diameter: 7.5 cm, height: 4 cm) to achieve a certain thickness. Water-diluted liquid (5 ml) of the active compound prepared above having predetermined concentration was evenly poured thereto and allowed to stand until the feeds were solidified. Five of the 3rd-instar larvae of Spodoptera litura were released in respective cups, and covered. The cups were put in a temperature controlled room at 25° C. and humidity of 50 to 60%, and the number of dead larvae after 7 days was determined to calculate the pesticidal ratio. 100% pesticidal ratio means death of all the larvae, while 0% pesticidal ratio means no dead larvae.

[4] = active compound concentration 20 ppm
[5] = active compound concentration 4 ppm
[6] = active compound concentration 100 ppm

In the case of `CCC(=O)NCc1ccc(N2CCC(c3cc(Cl)cc(Cl)c3)(C(F)(F)F)C2O)cc1CC` (mixture of isomers) [A1-85], the acaricidal activity [1, 4] is reported as 90%.

For `CC(=O)NCc1cc(F)c(N2CCC(c3cc(C(F)(F)F)cc(C(F)(F)F)c3)(C(F)(F)F)C2O)nc1Cl` (stereo not shown) [A3-377], the insecticidal activity [2, 5] was 100% and the “insecticidal activity (pesticidal ratio)” value [3, 5] was 100%.

With `CCC(=O)NCc1ccc(N2CCC(c3cc(C(F)(F)F)cc(C(F)(F)F)c3)(C(F)(F)F)C2=O)cc1` (stereo not shown) [B1-96] the insecticidal activity [2, 4] was 100% and the “insecticidal activity (pesticidal ratio)” value [3, 4] was 100%.

In the case of `CCC(=O)NCc1ccc(N2CC(c3cc(Cl)c(Cl)c(Cl)c3)(C(F)(F)F)CC2=O)nc1C` (stereo not shown) [C1-74], the “insecticidal activity (pesticidal ratio)” value [3, 4] is reported as 100%.

`Cc1c(CNC(=O)C2CC2)ccc(N2CCC(c3cc(Cl)c(Cl)c(Cl)c3)(C(F)(F)F)C2O)c1F` (stereo not shown) [A1-493] was tested, and the insecticidal activity [2, 5] was 100% and the “insecticidal activity (pesticidal ratio)” value [3, 5] was 100%.

`O=C(NCc1cc(F)c(N2CCC(c3cc(Cl)c(Cl)c(Cl)c3)(C(F)(F)F)C2O)cc1Cl)C1CC1` (stereo not shown) [A1-481] was tested, and the insecticidal activity [2, 5] was 100% and the “insecticidal activity (pesticidal ratio)” value [3, 5] was 100%.

With `CN(C)CC(=O)NCc1cnc(N2CCC(c3cc(Cl)cc(Cl)c3)(C(F)(F)F)C2O)nc1C(F)(F)F` (stereo not shown) [A4-201] the “insecticidal activity (pesticidal ratio)” value [3, 6] was 100%.

Compound `COCCC(=O)NCc1ccc(N2CCC(c3cc(C(F)(F)F)cc(C(F)(F)F)c3)(C(F)(F)F)C2O)cc1C` (mixture of isomers) [A1-190] has an insecticidal activity [2, 4] of 100% and an acaricidal activity [1, 4] of 100%.

For `Cc1nc(N2CCC(c3cc(C(F)(F)F)cc(C(F)(F)F)c3)(C(F)(F)F)C2O)ccc1CNC(=O)CS(C)(=O)=O` (stereo not shown) [A3-132], the “insecticidal activity (pesticidal ratio)” value [3, 5] was 100% and the “insecticidal activity (pesticidal ratio)” value [3, 4] was 100%.

For `CCC(=O)NCc1ccc(N2CCC(c3cc(F)cc(Cl)c3)(C(F)(F)F)C2O)cc1C(F)(F)F` (stereo not shown) [A1-239], the acaricidal activity [1, 4] was 100%.

With `O=C(CC1CC1)NCc1ccc(N2CCC(c3cccc(C(F)(F)F)c3)(C(F)(F)F)C2O)nc1C(F)(F)F` (racemic) [A3-226] the insecticidal activity [2, 5] was 100%, the insecticidal activity [2, 4] was 100% and the acaricidal activity [1, 5] was 100%. For the same compound, the acaricidal activity [1, 4] was 100%.

With `O=C(NCc1cnc(N2CCC(c3cc(Cl)cc(Cl)c3)(C(F)(F)F)C2O)nc1C(F)(F)F)C1CCCN1` (stereo not shown) [A4-202] the “insecticidal activity (pesticidal ratio)” value [3, 6] was 100%.

For `CC(=O)NCc1ccc(N2CCC(c3cc(Cl)cc(Cl)c3)(C(F)(F)F)C2O)cc1C(F)(F)F` (stereo not shown) [A1-34], the insecticidal activity [2, 4] was 100% and the “insecticidal activity (pesticidal ratio)” value [3, 4] was 100%.

For `CC(C)(C)OC(=O)NCc1ccc(N2CCC(c3cc(C(F)(F)F)cc(C(F)(F)F)c3)(C(F)(F)F)C2O)cc1C(F)(F)F` (mixture of isomers) [A1-72], the insecticidal activity [2, 6] was 100% and the “insecticidal activity (pesticidal ratio)” value [3, 6] was 100%.

With `CC(=O)NCc1ccc(N2CCC(c3cc(C(F)(F)F)cc(C(F)(F)F)c3)(C(F)(F)F)C2O)nc1C` (stereo not shown) [A3-122] the “insecticidal activity (pesticidal ratio)” value [3, 5] was 100% and the “insecticidal activity (pesticidal ratio)” value [3, 4] was 100%.

With `CCC(=O)NCc1ccc(N2CCC(c3cc(C(F)(F)F)cc(C(F)(F)F)c3)(C(F)(F)F)C2O)nc1Br` (stereo not shown) [A3-156] the insecticidal activity [2, 4] was 100% and the “insecticidal activity (pesticidal ratio)” value [3, 4] was 100%.

In the case of `O=C(CC1CC1)NCc1ccc(N2CCC(c3cc(Cl)cc(Cl)c3)(C(F)(F)F)C2O)cc1C(F)(F)F` (stereo not shown) [A1-39], the insecticidal activity [2, 4] is reported as 100% and the acaricidal activity [1, 4] is reported as 100%.

In the case of `CCC(=O)NCc1ccc(N2CCC(c3cc(Cl)cc(Cl)c3)(C(F)(F)F)C2O)cc1` (stereo not shown) [A1-373], the insecticidal activity [2, 4] is reported as 100% and the “insecticidal activity (pesticidal ratio)” value [3, 4] is reported as 100%.

With `O=C(NCc1ccc(N2CCC(c3cc(Br)cc(Br)c3)(C(F)(F)F)C2O)nc1C(F)(F)F)C1CC1` (mixture of isomers) [A3-181] the insecticidal activity [2, 4] was 100% and the “insecticidal activity (pesticidal ratio)” value [3, 4] was 100%.

`N#CCC(=O)NCc1cnc(N2CCC(c3cc(Cl)cc(Cl)c3)(C(F)(F)F)C2O)nc1C(F)(F)F` (stereo not shown) [A4-435] was tested, and the acaricidal activity [1, 4] was 100%.

In the case of `O=C(NCc1cc(F)c(N2CCC(c3cc(Cl)c(Cl)c(Cl)c3)(C(F)(F)F)C2O)cc1F)C1CC1` (stereo not shown) [A1-457], the insecticidal activity [2, 5] is reported as 100% and the “insecticidal activity (pesticidal ratio)” value [3, 5] is reported as 100%.

With `CC(=O)NCc1cc(F)c(N2CCC(c3cc(Cl)c(Cl)c(Cl)c3)(C(F)(F)F)C2O)cc1F` (stereo not shown) [A1-453] the “insecticidal activity (pesticidal ratio)” value [3, 5] was 80%.

For `O=C(NCc1cnc(N2CCC(c3cc(C(F)(F)F)cc(C(F)(F)F)c3)(C(F)(F)F)C2O)nc1Cl)C1CC1` (stereo not shown) [A4-252], the insecticidal activity [2, 5] was 100% and the “insecticidal activity (pesticidal ratio)” value [3, 5] was 100%.

`CCC(=O)NCc1ccc(N2CCC(c3cc(Cl)c(F)c(Cl)c3F)(C(F)(F)F)C2O)nc1Br` (stereo not shown) [A3-323] was tested, and the insecticidal activity [2, 5] was 100% and the “insecticidal activity (pesticidal ratio)” value [3, 5] was 100%.

For `O=C(NCc1cc(F)c(N2CCC(c3cc(Cl)c(Cl)c(Cl)c3)(C(F)(F)F)C2O)nc1Cl)C1CC1` (stereo not shown) [A3-370], the insecticidal activity [2, 5] was 100% and the “insecticidal activity (pesticidal ratio)” value [3, 5] was 100%.

In the case of `CS(=O)(=O)CC(=O)NCc1ccc(N2CCC(c3cccc(C(F)(F)F)c3)(C(F)(F)F)C2O)cc1C(F)(F)F` (racemic) [A1-303], the insecticidal activity [2, 4] is reported as 100% and the acaricidal activity [1, 4] is reported as 100%.

For `O=C(NCc1ccc(N2CC(c3cc(Cl)cc(Cl)c3)(C(F)(F)F)CC2=O)nc1C(F)(F)F)C1CC1` (stereo not shown) [C3-5], the “insecticidal activity (pesticidal ratio)” value [3, 4] was 100%.

`CC(=O)NCc1ccc(N2CCC(c3cc(C(F)(F)F)cc(C(F)(F)F)c3)(C(F)(F)F)C2O)cc1C` (mixture of isomers) [A1-183] was tested, and the insecticidal activity [2, 4] was 100% and the “insecticidal activity (pesticidal ratio)” value [3, 4] was 100%.

With `CCC(=O)NCc1ccc(N2CCC(c3cc(C(F)(F)F)cc(C(F)(F)F)c3)(C(F)(F)F)C2O)cc1` (stereo not shown) [A1-395] the insecticidal activity [2, 4] was 100% and the “insecticidal activity (pesticidal ratio)” value [3, 4] was 100%.

`CC(C)(C)OC(=O)N1CCCC1C(=O)NCc1cnc(N2CCC(c3cc(Cl)cc(Cl)c3)(C(F)(F)F)C2O)nc1C(F)(F)F` (stereo not shown) [A4-203] was tested, and the “insecticidal activity (pesticidal ratio)” value [3, 6] was 80%.

With `C=C(C)N(Cc1ccc(N2CCC(c3cc(Cl)c(Cl)c(Cl)c3)(C(F)(F)F)C2O)nc1C(F)(F)F)C(=O)C1CC1` (stereo not shown) [A3-424] the insecticidal activity [2, 5] was 100% and the “insecticidal activity (pesticidal ratio)” value [3, 5] was 100%.

Work on `CC(=O)NCc1ccc(N2CCC(c3cccc(C(F)(F)F)c3)(C(F)(F)F)C2O)nc1C(F)(F)F` (racemic) [A3-221] yielded an insecticidal activity [2, 4] of 100%.

With `CCC(=O)NCc1ccc(N2CC(c3cc(Cl)cc(Cl)c3)(C(F)(F)F)CC2=O)nc1C(F)(F)F` (stereo not shown) [C3-2] the “insecticidal activity (pesticidal ratio)” value [3, 4] was 100%.

`CC(C)(C)OC(=O)NCc1ccc(N2CCC(c3cc(C(F)(F)F)cc(C(F)(F)F)c3)(C(F)(F)F)C2O)cc1Cl` (stereo not shown) [A1-69, tert-butyl (4-{3-[3,5-bis(trifluoromethyl)phenyl]-2-hydroxy-3-(trifluoro-methyl)pyrrolidin-1-yl}-2-chlorobenzyl)carbamate] was tested, and the pest or weed control at 20 ppm [2, 4] was 100%.

With `CCC(=O)NCc1ccc(N2CCC(c3cc(Br)cc(Br)c3)(C(F)(F)F)C2O)nc1C(F)(F)F` (mixture of isomers) [A3-178] the insecticidal activity [2, 4] was 100% and the “insecticidal activity (pesticidal ratio)” value [3, 4] was 100%.

`N#Cc1ccc(N2CCC(c3cc(Cl)c(F)c(Cl)c3F)(C(F)(F)F)C2O)cc1C(F)(F)F` (stereo not shown) [a1-48, 4-[3-(3,5-dichloro-2,4-difluorophenyl)-2-hydroxy-3-(trifluoromethyl)-pyrrolidin-1-yl]-2-(trifluoromethyl)benzonitrile] showed a pest or weed control at 20 ppm [2, 4] of 100%.

`CC(C)(C)OC(=O)NCc1ccc(N2CCC(c3cc(Cl)c(Cl)c(Cl)c3)(C(F)(F)F)C2O)cc1Cl` (mixture of isomers) [A1-68] showed an acaricidal activity [1, 6] of 100%.

With `CCCC(=O)NCc1ccc(N2CCC(c3cc(Cl)c(Cl)c(Cl)c3)(C(F)(F)F)C2O)cc1C(F)(F)F` (stereo not shown) [a1-47] the “insecticidal activity (pesticidal ratio)” value [3, 4] was 100%.

With `Cc1nc(N2CCC(c3cc(C(F)(F)F)cc(C(F)(F)F)c3)(C(F)(F)F)C2O)ccc1CNC(=O)C1CC1` (stereo not shown) [A3-126] the insecticidal activity [2, 4] was 100% and the “insecticidal activity (pesticidal ratio)” value [3, 4] was 100%.

In the case of `CC(=O)NCc1ccc(N2CCC(c3cc(C(F)(F)F)cc(C(F)(F)F)c3)(C(F)(F)F)C2O)nc1Br` (stereo not shown) [A3-155], the insecticidal activity [2, 5] is reported as 100%, the insecticidal activity [2, 4] is reported as 100% and the “insecticidal activity (pesticidal ratio)” value [3, 5] is reported as 100%. The “insecticidal activity (pesticidal ratio)” value [3, 4] was 100%.

In the case of `CCC(=O)NCc1ccc(N2CCC(c3cc(Cl)cc(Cl)c3)(C(F)(F)F)C2O)nc1C(F)(F)F` (stereo not shown) [A3-2], the insecticidal activity [2, 4] is reported as 100% and the “insecticidal activity (pesticidal ratio)” value [3, 4] is reported as 100%.

Compound `CCC(=O)NCc1ccc(N2CC(c3cc(C(F)(F)F)cc(C(F)(F)F)c3)(C(F)(F)F)CC2O)nc1C(F)(F)F` (stereo not shown) [A′3-24, N-{[6-{4-[3,5-bis(trifluoromethyl)phenyl]-2-hydroxy-4-(trifluoromethyl)pyrrolidin-1-yl}-2-(trifluoromethyl)pyridin-3-yl]methyl}propanamide] has a pest or weed control at 20 ppm [2, 4] of 100% and a pest or weed control at 20 ppm ([3]; Spodoptera litura, 168 h, active compound concentration 20 ppm, read-out: insecticidal activity (pesticidal ratio)) of 100%.
